Results reported in paper PMC9606171, “Synthetic PPAR Agonist DTMB Alleviates Alzheimer’s Disease Pathology by Inhibition of Chronic Microglial Inflammation in 5xFAD Mice” (Neurotherapeutics, 2022).

Experiments:
[1] = system: RAW 264.7 macrophage cells; assay: Griess assay, LPS-induced NO production; type: cell-based; details: LPS (1 µg/mL), 24 h
Method: Griess assay (Promega) was performed under manufacturer’s instruction to measure the concentration of nitrite after inducing the inflammatory response in RAW 264.7 macrophage cells by LPS treatment. The well-known PPAR selective agonists, such as WY14643 (PPARα), GW501516 (PPAR-β/δ), and rosiglitazone (PPARγ), were used as positive controls.

PPAR-β/δ = system: PPAR-β/δ; design: method as in PMID 27802237; details: dual agonist of PPAR-β/δ and PPARγ; cited from earlier work

| Compound | inhibition of NO production compared between DTMB and known PPAR agonists [1] | selectivity to PPAR-β/δ (PPAR-β/δ) |
| --- | --- | --- |
| Cc1cc(SCc2sc(-c3ccc(C(F)(F)F)cc3)nc2C)ccc1OCC(=O)O [GW501516, reference compound] | better inhibitor than DTMB | – |
| CCc1oc(-c2ccc(OC)cc2)nc1CCOc1ccc2c(c1)CC[C@H]2CC(=O)[O-].[Na+] [T3D-959] | – | 15 fold |
